Read-outs that look alike come from different tables or passages of the source.
Experiments:
Type in all cases: cell-based
primary human B cells = assay: B cell activation assay (CD69 on anti-IgM stimulated B cells); conditions: AUC of dose response curve (10 μM to 1 nM) of CD69 MFI normalized to DMSO control
Procedure: Peripheral blood mononuclear cells (PBMC) were obtained either: 1) by using Ficoll-Paque™ (GE Healthcare) for separation of peripheral blood hematopoietic cells from buffy coats of healthy human donors; or 2) directly from LeukoPak donations. Human primary B cells were isolated from the PBMCs utilizing negative selection with commercial kits following the manufacturer's protocol (StemCells Catalog #17954) to yield >95% CD20+ cells assessed by flow cytometry. Primary human B cells were plated at 0.7-1×10^5 per well in a 96-well plate with Cbl-b inhibitors over a dose ranging from 10 μM to 1 nM and incubated at 37° C. 5% CO2, with a final DMSO concentration of <0.5%. Cells were stimulated with anti-IgM for 20 hours at 37° C. 5% CO2. Surface activation markers on mature CD20^+ IgD^+ B cells were monitored by FACS using an anti-CD69 antibody (BD Biosciences).
Cbl-b inhibitors were tested to determine their ability to induce or enhance surface expression of cell surface markers on B cells (e.g., CD69), which is indicative of B cell activation.
Readouts were reported as area under curve (AUC) of the dose response curve of CD69 mean fluorescence intensity (MFI) normalized to the DMSO control. Baseline for this study was the measurement obtained from primary human B cells treated with DMSO in the presence of 2.5 μg/mL of anti-IgM-F(ab′)2. […] Compounds were ranked into bins according to their readouts as follows: A indicates ≤0.5, B indicates 0.5-1.00, C indicates 1.01-1.50, and D indicates ≥1.51.

primary human NK cells = assay: NK cell activation assessed by cytokine secretion (coculture with K562 NucRed target cells); conditions: for fold induction at 0.625 µM: 0.625 μM compound; for fold induction at 2.5 µM: 2.5 μM compound
Method in brief: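 Primary NK cells from donor PBMC, IL-2 (60 ng/mL) overnight, then Cbl-b inhibitor (e.g. 10, 1 or 0.1 μM; DMSO <0.1%) for 1 h before 6 h coculture with K562 NucRed at effector:target ratios such as 5:1, 1:1 or 1:5. Supernatant IFNγ, TNFα, MIP1β measured by ELISA or Luminex; fold change over inhibitor-free baseline, >2.0-fold positive.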

T-cell = assay: CD25 cell surface staining on T-cells stimulated with anti-CD3 antibody alone (Biological Example 2); conditions: primary human total T-cells, baseline = anti-CD3/anti-CD28 stimulated cells without inhibitor, read-out: CD25 staining, Anti-CD3 stimulation, fold change over baseline; for fold induction at 1 µM: 1 μM compound; for fold induction at 8 µM: 8 μM compound
[1] = K562, NK cells cocultured with K562 NucRed, 1:1 E/T, read-out: IFNγ secretion, fold change over baseline
[2] = K562, NK cells cocultured with K562 NucRed, 1:1 E/T, read-out: TNFα secretion, fold change over baseline
[3] = K562, NK cells cocultured with K562 NucRed, 1:1 E/T, 10 μM compound, read-out: IFNγ secretion, fold change over baseline
[4] = K562, NK cells cocultured with K562 NucRed, 1:1 E/T, 10 μM compound, read-out: TNFα secretion, fold change over baseline

Structure (SMILES) | CD69 MFI AUC (primary human B cells) | fold induction at 0.625 µM (primary human NK cells; [1]) | fold induction at 0.625 µM (primary human NK cells; [2]) | fold induction at 2.5 µM (primary human NK cells; [1]) | fold induction at 2.5 µM (primary human NK cells; [2]) | fold induction at 10 µM (primary human NK cells; [3]) | fold induction at 10 µM (primary human NK cells; [4]) | fold induction at 1 µM (T-cell) | fold induction at 8 µM (T-cell) | also measured
C[C@H](Cc1nncn1C)c1cccc(N2Cc3c(cc(CN4CC[C@](C)(O)C4)cc3C(F)(F)F)C2=O)c1 [Compound 398, 6-(((S)-3-hydroxy-3-methylpyrrolidin-1-yl)methyl)-2-(3-((R)-1-(4-methyl-4H-1,2,4-triazol-3-yl)propan-2-yl)phenyl)-4-(trifluoromethyl)isoindolin-1-one] | B (B indicates 0.5-1.00) | 2.01 to 5 | 1.01 to 2 | 2.01 to 5 | 2.01 to 5 | > 5 | 2.01 to 5 | > 1 | > 1 | 
C[C@H](Cc1nncn1C)c1cccc(N2Cc3c(cc(CN4CC[C@H](F)C4)cc3C(F)(F)F)C2=O)c1 [Compound 399, 6-(((S)-3-fluoropyrrolidin-1-yl)methyl)-2-(3-((R)-1-(4-methyl-4H-1,2,4-triazol-3-yl)propan-2-yl)phenyl)-4-(trifluoromethyl)isoindolin-1-one] | C (C indicates 1.01-1.50) | 2.01 to 5 | 2.01 to 5 | > 5 | > 5 | > 5 | > 5 | > 1 | > 1 | fold induction at 1 µM (primary human NK cells; K562, 1:1 E/T, read-out: IFNγ secretion): 2.01 to 5; fold induction at 1 µM (primary human NK cells; K562, 1:1 E/T, read-out: MIP1β secretion): 1.01 to 2; fold induction at 1 µM (primary human NK cells; K562, 1:1 E/T, read-out: TNFα secretion): 2.01 to 5; fold induction at 10 µM (primary human NK cells; K562, 1:1 E/T, 10 μM, read-out: IFNγ secretion): > 5; fold induction at 10 µM (primary human NK cells; K562, 1:1 E/T, 10 μM, read-out: MIP1β secretion): 1.01 to 2; fold induction at 10 µM (primary human NK cells; K562, 1:1 E/T, 10 μM, read-out: TNFα secretion): 2.01 to 5; fold induction at 1 µM (primary human NK cells; K562, 5:1 E/T, read-out: IFNγ secretion): 2.01 to 5; fold induction at 1 µM (primary human NK cells; K562, 5:1 E/T, read-out: MIP1β secretion): 1.01 to 2; fold induction at 1 µM (primary human NK cells; K562, 5:1 E/T, read-out: TNFα secretion): 2.01 to 5; fold induction at 10 µM (primary human NK cells; K562, 5:1 E/T, 10 μM, read-out: IFNγ secretion): > 5; fold induction at 10 µM (primary human NK cells; K562, 5:1 E/T, 10 μM, read-out: MIP1β secretion): 1.01 to 2; fold induction at 10 µM (primary human NK cells; K562, 5:1 E/T, 10 μM, read-out: TNFα secretion): > 5
C[C@@H](c1cc2c(c(C(F)(F)F)c1)CN(c1cccc(C3(Cc4nncn4C)COC3)c1)C2=O)N1CC[C@H](F)C1 [Compound 412, 6-((S)-1-((S)-3-fluoropyrrolidin-1-yl)ethyl)-2-(3-(3-((4-methyl-4H-1,2,4-triazol-3-yl)methyl)oxetan-3-yl)phenyl)-4-(trifluoromethyl)isoindolin-1-one] | D (D indicates ≥1.51) | 2.01 to 5 | 2.01 to 5 | 2.01 to 5 | 2.01 to 5 | > 5 | 2.01 to 5 | > 1 | > 1 | 
C[C@H](c1cc2c(c(C(F)(F)F)c1)CN(c1cccc(C3(Cc4nncn4C)COC3)c1)C2=O)N1CC[C@H](F)C1 [Compound 413, 6-((R)-1-((S)-3-fluoropyrrolidin-1-yl)ethyl)-2-(3-(3-((4-methyl-4H-1,2,4-triazol-3-yl)methyl)oxetan-3-yl)phenyl)-4-(trifluoromethyl)isoindolin-1-one] | C (C indicates 1.01-1.50) | 2.01 to 5 | 2.01 to 5 | > 5 | 2.01 to 5 | > 5 | 2.01 to 5 | > 1 | > 1 | 
Cn1cnnc1CC1(c2cccc(N3Cc4c(cc(CN5CC(F)C5)cc4C(F)(F)F)C3=O)c2)COC1 [Compound 415, 6-((3-fluoroazetidin-1-yl)methyl)-2-(3-(3-((4-methyl-4H-1,2,4-triazol-3-yl)methyl)oxetan-3-yl)phenyl)-4-(trifluoromethyl)isoindolin-1-one] | C (C indicates 1.01-1.50) | 2.01 to 5 | 1.01 to 2 | 2.01 to 5 | 2.01 to 5 | > 5 | 2.01 to 5 | > 1 | > 1 | 

Reference: patent US20220324835A1 (Nurix Therapeutics, Inc., priority 2018, published 2022)
